The values that follow come from ChEMBL document CHEMBL1146150, “Synthesis and antibacterial activity of novel neamine derivatives” (2006).

In brackets after ≈: the same amount, converted by molar mass.

Format in all cases: functional
The test system of assay [1] is Staphylococcus aureus. The assay is described as follows: Antibacterial activity against Staphylococcus aureus RN4220 by twofold agar dilution method. On the technique in general: In agar dilution, organisms are placed on agar that contains the substance at set levels.
Assay [2] deals with Staphylococcus aureus. The assay is described as follows: Antibacterial activity against Staphylococcus aureus RN4220/pMS520 expressing AAD(4')-I enzyme by twofold agar dilution method.
The subject of assay [3] is Staphylococcus aureus. Nature of the assay: Antibacterial activity against Staphylococcus aureus RN4220/pCR1948 expressing AAC(6')-APH(2'') enzyme by twofold agar dilution method.
The subject of assay [4] is Staphylococcus aureus. The assay is described as follows: Antibacterial activity against gentamycin and arbekacin-resistant Staphylococcus aureus RN4220/pMF490 expressing AAC(6')-APH(2'') enzyme by twofold agar dilution method.
Assay [5] deals with Staphylococcus aureus. The assay is described as follows: Antibacterial activity against gentamycin and arbekacin-resistant Staphylococcus aureus MF490 expressing AAD(4'), AAC(6')-APH(2'') enzymes by twofold agar dilution method.
The test system of another assay is Escherichia coli. Nature of the assay: Antibacterial activity against Escherichia coli NIH JC2 by twofold agar dilution method.
In assay [6] the test system is Pseudomonas aeruginosa. The assay is described as follows: Antibacterial activity against Pseudomonas aeruginosa PAO1 by twofold agar dilution method.
In assay [7] the test system is Pseudomonas aeruginosa. Nature of the assay: Antibacterial activity against Pseudomonas aeruginosa GN4925 expressing AAC(6')-Ib by twofold agar dilution method.
Assay [8] relates to Pseudomonas aeruginosa. The assay is described as follows: Antibacterial activity against Pseudomonas aeruginosa GN3054 expressing AAC(3)-I by twofold agar dilution method.

On to `CN[C@@H]1[C@@H](O)[C@@H](O[C@@H]2[C@@H](O)[C@H](O[C@H]3O[C@H](C(C)N)CC[C@H]3N)[C@@H](N)C[C@H]2N)OC[C@]1(C)O` (stereo not given in full) [GENTAMICIN C2], for which the MIC was 0.25 mg/L (≈ 0.539 µM) against Staphylococcus aureus [1]; 0.25 mg/L (≈ 0.539 µM) against Staphylococcus aureus [2]; 64 mg/L (≈ 138 µM) against Staphylococcus aureus [3]; more than 128 mg/L against Staphylococcus aureus [4]; more than 128 mg/L in the assay on Staphylococcus aureus [5]; 0.5 mg/L (≈ 1.08 µM) in the assay with Escherichia coli. For the same compound, the MIC in the assay with Pseudomonas aeruginosa [6] turned out to be 4 mg/L (≈ 8.63 µM); against Pseudomonas aeruginosa [7], 128 mg/L (≈ 276 µM); in the assay on Pseudomonas aeruginosa [8], 128 mg/L (≈ 276 µM).
As to `CN[C@@H]1[C@@H](O)[C@@H](O[C@@H]2[C@@H](O)[C@H](O[C@H]3O[C@H]([C@@H](C)NC)CC[C@H]3N)[C@@H](N)C[C@H]2N)OC[C@]1(C)O` [GENTAMICIN C1], the MIC was 0.25 mg/L (≈ 0.523 µM) against Staphylococcus aureus [1]; 0.25 mg/L (≈ 0.523 µM) against Staphylococcus aureus [2]; 64 mg/L (≈ 134 µM) with Staphylococcus aureus [3]; more than 128 mg/L in the assay on Staphylococcus aureus [4]; more than 128 mg/L against Staphylococcus aureus [5]; 0.5 mg/L (≈ 1.05 µM) against Escherichia coli. Moreover, the MIC against Pseudomonas aeruginosa [6] turned out to be 4 mg/L (≈ 8.38 µM); in the assay with Pseudomonas aeruginosa [7], 128 mg/L (≈ 268 µM); against Pseudomonas aeruginosa [8] it was 128 mg/L (≈ 268 µM).
For `NCC[C@H](O)C(=O)N[C@@H]1C[C@H](N)[C@@H](O[C@H]2O[C@H](CN)CC[C@H]2N)[C@H](O)[C@H]1O[C@H]1O[C@H](CO)[C@@H](O)[C@H](N)[C@H]1O` [ARBEKACIN], the MIC in the assay with Staphylococcus aureus [1] came to 0.5 mg/L (≈ 0.905 µM); with Staphylococcus aureus [2], 0.5 mg/L (≈ 0.905 µM); against Staphylococcus aureus [3], 1 mg/L (≈ 1.81 µM); against Staphylococcus aureus [4] it was 8 mg/L (≈ 14.5 µM); against Staphylococcus aureus [5], 64 mg/L (≈ 116 µM); with Escherichia coli, 1 mg/L (≈ 1.81 µM). The values for the MIC against Pseudomonas aeruginosa [6], in the assay with Pseudomonas aeruginosa [7] and against Pseudomonas aeruginosa [8] were 4 mg/L (≈ 7.24 µM), 4 mg/L (≈ 7.24 µM) and 8 mg/L (≈ 14.5 µM), respectively.
`NCCNC(=O)O[C@@H]1[C@@H](O)[C@H](NC(=O)[C@@H](O)CCN)C[C@H](N)[C@H]1O[C@H]1O[C@H](CN)CC[C@H]1N`: the MIC in the assay on Staphylococcus aureus [1] was 2 mg/L (≈ 4.19 µM); in the assay on Staphylococcus aureus [2], 2 mg/L (≈ 4.19 µM); against Staphylococcus aureus [3] it was 2 mg/L (≈ 4.19 µM); against Staphylococcus aureus [4], 2 mg/L (≈ 4.19 µM); against Staphylococcus aureus [5], 8 mg/L (≈ 16.8 µM); in the assay on Escherichia coli, 8 mg/L (≈ 16.8 µM). Also, the MIC was 8 mg/L (≈ 16.8 µM) against Pseudomonas aeruginosa [6], 8 mg/L (≈ 16.8 µM) against Pseudomonas aeruginosa [7] and 16 mg/L (≈ 33.5 µM) with Pseudomonas aeruginosa [8].
For `NCCNC(=O)O[C@@H]1[C@@H](O)[C@H](O[C@H]2O[C@H](CN)CC[C@H]2N)[C@@H](N)C[C@H]1NC(=O)[C@@H](O)CCN`, the MIC turned out to be 8 mg/L (≈ 16.8 µM) in the assay on Staphylococcus aureus [1]; 8 mg/L (≈ 16.8 µM) in the assay on Staphylococcus aureus [2]; 8 mg/L (≈ 16.8 µM) against Staphylococcus aureus [3]; 16 mg/L (≈ 33.5 µM) against Staphylococcus aureus [4]; 32 mg/L (≈ 67 µM) against Staphylococcus aureus [5]; 32 mg/L (≈ 67 µM) in the assay with Escherichia coli. Moreover, the minimum inhibitory concentration (MIC) in the assay on Pseudomonas aeruginosa [6], against Pseudomonas aeruginosa [7] and against Pseudomonas aeruginosa [8] was more than 32 mg/L throughout.
With `NCC[C@H](O)C(=O)N[C@@H]1C[C@H](N)[C@@H](O[C@H]2O[C@H](CN)CC[C@H]2N)[C@H](O)[C@H]1O`, the MIC is 4 mg/L (≈ 10.2 µM) in the assay with Staphylococcus aureus [1]; 4 mg/L (≈ 10.2 µM) in the assay on Staphylococcus aureus [2]; 2 mg/L (≈ 5.11 µM) against Staphylococcus aureus [3]; 4 mg/L (≈ 10.2 µM) against Staphylococcus aureus [4]; 8 mg/L (≈ 20.4 µM) with Staphylococcus aureus [5]; 8 mg/L (≈ 20.4 µM) against Escherichia coli. Besides, the MIC against Pseudomonas aeruginosa [6] is 8 mg/L (≈ 20.4 µM); with Pseudomonas aeruginosa [7], 64 mg/L (≈ 163 µM); with Pseudomonas aeruginosa [8] it was 16 mg/L (≈ 40.9 µM).
Regarding `NCCCNC(=O)O[C@@H]1[C@@H](O)[C@H](O[C@H]2O[C@H](CN)CC[C@H]2N)[C@@H](N)C[C@H]1NC(=O)[C@@H](O)CCN`, the MIC against Staphylococcus aureus [1] is 16 mg/L (≈ 32.5 µM); with Staphylococcus aureus [2] it was 16 mg/L (≈ 32.5 µM); with Staphylococcus aureus [3], 16 mg/L (≈ 32.5 µM); against Staphylococcus aureus [4] it was 16 mg/L (≈ 32.5 µM); with Staphylococcus aureus [5] it was 64 mg/L (≈ 130 µM); with Escherichia coli, 64 mg/L (≈ 130 µM). Besides, the MIC in the assay on Pseudomonas aeruginosa [6] is 32 mg/L (≈ 65.1 µM); against Pseudomonas aeruginosa [7], 128 mg/L (≈ 260 µM); in the assay with Pseudomonas aeruginosa [8] it was 128 mg/L (≈ 260 µM).
For `NCCCNC(=O)O[C@@H]1[C@@H](O)[C@H](NC(=O)[C@@H](O)CCN)C[C@H](N)[C@H]1O[C@H]1O[C@H](CN)CC[C@H]1N`, the MIC stood at 16 mg/L (≈ 32.5 µM) against Staphylococcus aureus [1]; 16 mg/L (≈ 32.5 µM) in the assay with Staphylococcus aureus [2]; 16 mg/L (≈ 32.5 µM) against Staphylococcus aureus [3]; 32 mg/L (≈ 65.1 µM) in the assay on Staphylococcus aureus [4]; 128 mg/L (≈ 260 µM) in the assay on Staphylococcus aureus [5]; 32 mg/L (≈ 65.1 µM) in the assay with Escherichia coli. Moreover, the MIC against Pseudomonas aeruginosa [6] was determined as 32 mg/L (≈ 65.1 µM); in the assay with Pseudomonas aeruginosa [7], 128 mg/L (≈ 260 µM); in the assay on Pseudomonas aeruginosa [8], 64 mg/L (≈ 130 µM).
Take `NC[C@@H]1CC[C@@H](N)[C@@H](O[C@H]2[C@H](O)[C@@H](O)[C@H](N)C[C@@H]2N)O1` [GENTAMINE C1A]: the MIC in the assay with Staphylococcus aureus [1] is 16 mg/L (≈ 55.1 µM); in the assay on Staphylococcus aureus [2], 16 mg/L (≈ 55.1 µM); in the assay with Staphylococcus aureus [3], more than 128 mg/L; against Staphylococcus aureus [5] it was more than 128 mg/L; with Escherichia coli, 32 mg/L (≈ 110 µM); against Pseudomonas aeruginosa [6], 32 mg/L (≈ 110 µM). The minimal inhibitory concentration (MIC) is more than 128 mg/L with Pseudomonas aeruginosa [7] and 64 mg/L (≈ 220 µM) against Pseudomonas aeruginosa [8].

What is called MIC is the smallest concentration in the dilution series that meets the test's criterion for growth inhibition. A lower MIC goes with a more susceptible organism.
